Measured values published in ChEMBL document CHEMBL1201862, “PubChem BioAssay data set” (2004).
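These data come from cells grown in 96-well plates and exposed to compound for 48 hours at five concentrations. GI50 = concentration required for 50% inhibition of growth.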 Activity calls are given as the source filed them. Rule as the data show it: active = GI50 up to about 1.1 µM and inactive = higher.

How the values were obtained:
Test in all cases: growth of human tumour cells (NCI), 48 h
786-0 = test system: 786-0
A498 = test system: A498
A549 = test system: A549
ACHN = test system: ACHN
BT-549 = test system: BT-549
CAKI-1 = test system: CAKI-1
CCRF-CEM = test system: CCRF-CEM
COLO 205 = test system: COLO 205
DU-145 = test system: DU-145
EKVX = test system: EKVX
HCC 2998 = test system: HCC 2998
HCT-116 = test system: HCT-116
HCT-15 = test system: HCT-15
HL-60 = test system: HL-60
HOP-62 = test system: HOP-62
HOP-92 = test system: HOP-92
HT-29 = test system: HT-29
Hs-578T = test system: Hs-578T
IGROV-1 = test system: IGROV-1
K562 = test system: K562
KM12 = test system: KM12
LOX IMVI = test system: LOX IMVI
M14 = test system: M14
MCF7 = test system: MCF7
MDA-MB-231 = test system: MDA-MB-231
MDA-MB-435 = test system: MDA-MB-435
MDA-N = test system: MDA-N
MOLT-4 = test system: MOLT-4
Malme-3M = test system: Malme-3M
NCI-H226 = test system: NCI-H226
NCI-H23 = test system: NCI-H23
NCI-H460 = test system: NCI-H460
NCI-H522 = test system: NCI-H522
NCI/ADR-RES = test system: NCI/ADR-RES
OVCAR-3 = test system: OVCAR-3
OVCAR-4 = test system: OVCAR-4
OVCAR-5 = test system: OVCAR-5
OVCAR-8 = test system: OVCAR-8
PC-3 = test system: PC-3
RPMI-8226 = test system: RPMI-8226
RXF 393 = test system: RXF 393
SF-268 = test system: SF-268
SF-295 = test system: SF-295
SF-539 = test system: SF-539
SK-MEL-28 = test system: SK-MEL-28
SK-MEL-2 = test system: SK-MEL-2
SK-MEL-5 = test system: SK-MEL-5
SK-OV-3 = test system: SK-OV-3
SN12C = test system: SN12C
SNB-19 = test system: SNB-19
SNB-75 = test system: SNB-75
SR = test system: SR
SW-620 = test system: SW-620
T47D = test system: T47D
TK-10 = test system: TK-10
U-251 = test system: U-251
UACC-257 = test system: UACC-257
UACC-62 = test system: UACC-62
UO-31 = test system: UO-31

Measured: GI50

COc1ccc(-c2c3c(cc4cc5c(cc24)OCO5)C(=O)OC3)cc1OC
0.635 µM: HCT-15
inactive: 786-0 2.12 µM | A498 20.4 µM | A549 1.44 µM | ACHN 1.37 µM | CCRF-CEM 4.06 µM | DU-145 2.7 µM | EKVX 1.96 µM | HCC 2998 2.99 µM | Hs-578T 6.22 µM | KM12 1.77 µM | MCF7 4.13 µM | MDA-MB-231 3.02 µM | MDA-MB-435 2.43 µM | MDA-N 2.01 µM | MOLT-4 3.62 µM | NCI-H23 6.98 µM | OVCAR-4 2.47 µM | OVCAR-5 9.55 µM | PC-3 4.01 µM | RXF 393 2.9 µM | SF-268 5.85 µM | SF-539 3.5 µM | SK-MEL-28 1.37 µM | SK-MEL-2 1.83 µM | SK-OV-3 13.4 µM | SNB-19 16.1 µM | SNB-75 6.92 µM | SW-620 2.19 µM | TK-10 42.2 µM | U-251 4.67 µM | UACC-257 2.07 µM | UO-31 3.15 µM
active: BT-549 0.51 µM | CAKI-1 0.571 µM | COLO 205 0.383 µM | HCT-116 0.466 µM | HL-60 0.271 µM | HOP-62 0.313 µM | HOP-92 0.771 µM | HT-29 0.215 µM | IGROV-1 0.336 µM | K562 0.69 µM | LOX IMVI 0.0164 µM | M14 0.305 µM | Malme-3M 0.51 µM | NCI-H226 0.34 µM | NCI-H460 0.222 µM | NCI-H522 0.392 µM | NCI/ADR-RES 0.132 µM | OVCAR-3 0.885 µM | OVCAR-8 0.24 µM | RPMI-8226 0.0447 µM | SF-295 0.239 µM | SK-MEL-5 0.119 µM | SN12C 0.488 µM | SR 0.0299 µM | T47D 0.386 µM | UACC-62 0.507 µM

O=C(CC(=O)N1N=C(N2CCCCC2)CC1c1ccccc1)Nc1ccccc1 (stereo not given)
inactive: 786-0 > 100 µM | A498 > 100 µM | A549 > 100 µM | ACHN > 100 µM | BT-549 > 100 µM | CAKI-1 > 100 µM | CCRF-CEM > 100 µM | COLO 205 > 100 µM | DU-145 > 100 µM | EKVX > 100 µM | HCC 2998 > 100 µM | HCT-116 > 100 µM | HL-60 > 100 µM | HOP-62 > 100 µM | HOP-92 91 µM | HT-29 > 100 µM | Hs-578T > 100 µM | IGROV-1 > 100 µM | KM12 > 100 µM | LOX IMVI > 100 µM | M14 > 100 µM | MCF7 > 100 µM | MDA-MB-231 > 100 µM | MDA-MB-435 > 100 µM | MDA-N > 100 µM | MOLT-4 > 100 µM | Malme-3M > 100 µM | NCI-H226 > 100 µM | NCI-H23 > 100 µM | NCI-H460 > 100 µM | NCI-H522 > 100 µM | NCI/ADR-RES > 100 µM | OVCAR-3 > 100 µM | OVCAR-4 > 100 µM | OVCAR-5 > 100 µM | OVCAR-8 > 100 µM | PC-3 > 100 µM | RXF 393 > 100 µM | SF-268 > 100 µM | SF-295 > 100 µM | SF-539 > 100 µM | SK-MEL-28 > 100 µM | SK-MEL-2 > 100 µM | SK-MEL-5 > 100 µM | SN12C > 100 µM | SNB-19 > 100 µM | SNB-75 > 100 µM | SR > 100 µM | SW-620 > 100 µM | T47D > 100 µM | TK-10 > 100 µM | U-251 > 100 µM | UACC-257 > 100 µM | UACC-62 > 100 µM | UO-31 > 100 µM
> 100 µM: HCT-15

COc1cc2oc(=O)cc(C)c2cc1O
> 100 µM: HCT-15
inactive: 786-0 > 100 µM | A498 > 100 µM | A549 > 100 µM | ACHN > 100 µM | BT-549 > 100 µM | CAKI-1 > 100 µM | CCRF-CEM > 100 µM | COLO 205 > 100 µM | DU-145 > 100 µM | EKVX > 100 µM | HCC 2998 3 µM | HCT-116 > 100 µM | HL-60 > 100 µM | HOP-62 > 100 µM | HOP-92 46.3 µM | HT-29 > 100 µM | Hs-578T > 100 µM | IGROV-1 > 100 µM | K562 > 100 µM | KM12 > 100 µM | LOX IMVI > 100 µM | M14 > 100 µM | MCF7 > 100 µM | MDA-MB-231 > 100 µM | MDA-MB-435 > 100 µM | MDA-N > 100 µM | MOLT-4 > 100 µM | Malme-3M > 100 µM | NCI-H226 > 100 µM | NCI-H23 > 100 µM | NCI-H460 > 100 µM | NCI-H522 > 100 µM | NCI/ADR-RES > 100 µM | OVCAR-3 > 100 µM | OVCAR-4 > 100 µM | OVCAR-5 > 100 µM | OVCAR-8 > 100 µM | PC-3 > 100 µM | RPMI-8226 > 100 µM | RXF 393 > 100 µM | SF-268 > 100 µM | SF-295 > 100 µM | SF-539 > 100 µM | SK-MEL-28 > 100 µM | SK-MEL-2 > 100 µM | SK-MEL-5 > 100 µM | SN12C > 100 µM | SNB-19 > 100 µM | SNB-75 > 100 µM | SR > 100 µM | SW-620 > 100 µM | T47D 41 µM | TK-10 > 100 µM | U-251 > 100 µM | UACC-257 > 100 µM | UO-31 54.5 µM

Cc1cc(-c2ccc(C(=O)C(c3ccccc3)(c3ccccc3)c3ccccc3)[nH]2)on1
17.5 µM: HCT-15
inactive: 786-0 18.4 µM | A498 37.1 µM | A549 12 µM | BT-549 18.7 µM | CAKI-1 33.1 µM | CCRF-CEM 15.5 µM | COLO 205 15.9 µM | DU-145 14.2 µM | EKVX 13.2 µM | HCC 2998 11.2 µM | HCT-116 12.5 µM | HL-60 3.56 µM | HOP-62 17.1 µM | HOP-92 16.1 µM | HT-29 11.4 µM | Hs-578T 19.2 µM | IGROV-1 16.9 µM | K562 32 µM | KM12 15.6 µM | LOX IMVI 19.5 µM | M14 22.8 µM | MCF7 18.2 µM | MDA-MB-231 19.7 µM | MDA-MB-435 20.1 µM | MDA-N 16.6 µM | MOLT-4 21.8 µM | Malme-3M 31.4 µM | NCI-H226 16.9 µM | NCI-H23 15 µM | NCI-H460 7.21 µM | NCI/ADR-RES 15.8 µM | OVCAR-3 22.1 µM | OVCAR-4 32.3 µM | OVCAR-5 23.8 µM | OVCAR-8 17.5 µM | PC-3 15.2 µM | RPMI-8226 14.4 µM | RXF 393 2.2 µM | SF-268 18.7 µM | SF-295 14.2 µM | SF-539 29.7 µM | SK-MEL-28 17.6 µM | SK-MEL-2 14.6 µM | SK-MEL-5 12.7 µM | SK-OV-3 32.1 µM | SN12C 19.1 µM | SNB-19 19 µM | SNB-75 20.4 µM | SR 2.17 µM | SW-620 19.8 µM | T47D 37.8 µM | U-251 12.9 µM | UACC-257 32 µM | UACC-62 16.1 µM | UO-31 15.2 µM

CC1NCCC(CC(=O)O)C1CC(=O)O (stereo not given)
inactive: 786-0 > 100 µM | A498 > 100 µM | A549 > 100 µM | ACHN > 100 µM | BT-549 > 100 µM | CAKI-1 > 100 µM | CCRF-CEM > 100 µM | COLO 205 > 100 µM | DU-145 > 100 µM | EKVX > 100 µM | HCC 2998 > 100 µM | HCT-116 > 100 µM | HL-60 > 100 µM | HOP-62 > 100 µM | HOP-92 > 100 µM | HT-29 > 100 µM | Hs-578T > 100 µM | IGROV-1 > 100 µM | K562 > 100 µM | KM12 > 100 µM | LOX IMVI > 100 µM | M14 > 100 µM | MCF7 > 100 µM | MDA-MB-231 > 100 µM | MDA-MB-435 > 100 µM | MDA-N > 100 µM | Malme-3M > 100 µM | NCI-H226 > 100 µM | NCI-H23 > 100 µM | NCI-H460 > 100 µM | NCI-H522 > 100 µM | NCI/ADR-RES > 100 µM | OVCAR-3 > 100 µM | OVCAR-4 > 100 µM | OVCAR-5 > 100 µM | OVCAR-8 > 100 µM | PC-3 > 100 µM | RPMI-8226 > 100 µM | RXF 393 > 100 µM | SF-268 > 100 µM | SF-295 > 100 µM | SK-MEL-28 > 100 µM | SK-MEL-2 > 100 µM | SK-MEL-5 > 100 µM | SK-OV-3 > 100 µM | SN12C > 100 µM | SNB-19 > 100 µM | SNB-75 97.9 µM | SR > 100 µM | SW-620 > 100 µM | T47D > 100 µM | TK-10 > 100 µM | U-251 > 100 µM | UACC-257 > 100 µM | UACC-62 > 100 µM | UO-31 > 100 µM
> 100 µM: HCT-15
